Reference: patent publication US20260256769A1, “ARTERIOSCLEROSIS SUPPRESSION THROUGH INHIBITION OF TRANSCRIPTION FACTOR FoxO1” (TEIKYO UNIVERSITY, priority 2022, published 2026)

Assays:
bone marrow monocytes = test: CD11c expression in bone marrow monocytes by real-time PCR after intraperitoneal administration; assay type: in vivo; details: wild-type mice, 20 mg/kg intraperitoneally for 2 weeks, vs DMSO-treated group
Protocol: (§1) In this Example, the following experiment was carried out. First, the FoxO1 inhibitor AS1842856 (20 mg/kg) was intraperitoneally administered to Syk gene-deficient mice (Syk^del/del) and wild-type mice (Syk^+/+) for 2 weeks. The expression of CD11c in collected bone marrow monocytes was measured by real-time PCR, and the CD11c expression (%) in peripheral blood monocytes (CD115 positive cells) was measured by flow cytometry. CD115 is a monocyte marker.

[1] = tested on: atherosclerosis lesions in the aortic sinus; test: Atherosclerosis lesions in the aortic sinus evaluated using HE staining; assay type: in vivo; details: wild-type mice (Syk+/+), 20 mg/kg intraperitoneally for 8 weeks, vs DMSO-treated group
Protocol: Next, after the FoxO1 inhibitor AS1842856 (20 mg/kg) was intraperitoneally administered to wild-type mice (Syk^+/+) for 8 weeks, atherosclerosis lesions in the aortic sinus were evaluated using HE staining.

[2] = tested on: peripheral blood monocytes (CD115 positive cells); test: CD11c expression (%) in peripheral blood monocytes (CD115 positive cells) by flow cytometry after intraperitoneal administration; assay type: in vivo; details: wild-type mice, 20 mg/kg intraperitoneally for 2 weeks, vs DMSO-treated group
Protocol: as §1

[3] = tested on: bone marrow-derived macrophages; test: CD11c on the cell surface of bone marrow-derived macrophages by flow cytometry; assay type: cell-based, mice; details: vs DMSO-treated control group
Protocol: Next, we assumed that the transcription factor that binds to the nucleotide sequence of the determined region as above was FoxO1, and a FoxO1 inhibitor AS1842856 was administered to the bone marrow-derived macrophages respectively collected from Syk gene-deficient mice (Syk^del/del) and wild-type mice (Syk^+/+), and CD11c on the cell surface was measured by flow cytometry.

## CCn1cc(C(=O)O)c(=O)c2c(N)c(F)c(NC3CCCCC3)cc21 [AS1842856, 5-amino-7-(cyclohexylamino)-1-ethyl-6-fluoro-4-oxo-1,4-dihydroquinoline-3-carboxylic acid]
Bone marrow monocytes
  CD11c expression in bone marrow monocytes: significantly decreased
[1]
  atherosclerosis lesions in the aortic sinus: Atherosclerosis was suppressed
[2]
  CD11c/CD115 ratio in peripheral blood monocytes: significantly decreased
[3]; bone marrow-derived macrophages from Syk gene-deficient mice (Syk del/del)
  expression of CD11c on the cell surface: no significant difference
[3]; bone marrow-derived macrophages from wild-type mice (Syk+/+)
  expression of CD11c on the cell surface: significantly decreased
